# Results taken from paper PMC12622528, “Discovery of a Baloxavir‐Inspired Endonuclease Inhibitor That Prevents Herpes Simplex Virus 1 Replication in Cell Culture and In Vivo” (Advanced Science, 2025).
# Assays:
# BALB/c mice = settings: oral, five consecutive days, LN‐7 25, 50, 75 mg kg−1, acyclovir 50 mg kg−1, 12 days
# Method: BALB/c mice were purchased from Charles River Laboratories Spain and maintained at the Animal Facility of the CBM (Madrid, Spain). The toxicity of the test compound LN‐7 was investigated in BALB/c mice dosed as a solution at 25, 50, and 75 mg kg^−1. The compound was formulated in 3% DMSO + 10% solutol HS‐15 + 87% double‐distilled water (20 mg mL^−1). Animals had free access to food and water throughout each study. […] Compounds were orally administered for five consecutive days. Animals were monitored daily for clinical signs (piloerection, lethargy, eye closure), body weight loss, and survival. Oral administration and symptom monitoring was performed by researchers that were aware of the treatment condition (group allocation) for each animal. […] Animals with score 4 were defined as the humane endpoint on which the animal must be euthanized. On day 12, mice were sacrificed and whole blood was obtained by cardiac puncture. Several parameters were analyzed to monitor renal, hepatic, and immunological basic profiles. Body weight was also monitored to exclude weight loss or lack of weight gain that would be indicative of toxicity.
# HSV‐1 = HSV‐1 infection model in BALB/c mice; assay type: in vivo; settings: for clinical symptoms of the infection / morbidity: oral LN‐7 75 mg kg−1 or acyclovir 50 mg kg−1; for survival: 8 days postinfection
# [1] = Cell viability (MTT) in Vero cells; settings: African green monkey
# [2] = test system: ACV‐resistant HSV‐1 strain F‐TKGF; experiment: Antiviral assay, ACV‐resistant HSV‐1 strain F‐TKGF in Vero cells; settings: Human alphaherpesvirus 1, Vero, read-out: EC50 against ACV‐resistant strain F‐TKGF
# HSV‐1 pUL15C = HSV‐1 pUL15C (Human herpesvirus 1, UniProt P04295); experiment: HSV‐1 pUL15C nuclease inhibition enzymatic assay (32P‐labeled 33‐bp dsDNA substrate); assay type: biochemical; settings: for inhibition at 50 µM: read-out: percentage inhibition of pUL15C nuclease activity at the highest concentration tested; for IC50: concentration required to inhibit by 50% the pUL15C nuclease activity, 37 °C, 1 mM MnCl2, 15 min
# [3] = Pharmacokinetics studies in rats; assay type: in vivo; settings: male, Sprague-Dawley, plasma, rat
# Method: Six male Sprague‐Dawley rats (180–200 g) were randomly divided into two groups to receive […] of LN‐7 at 2 mg kg^−1 (iv administration) or 10 mg kg^−1 (po administration). LN‐7 was dissolved in DMSO, and then diluted at a concentration of 1 mg mL^−1 in 3% DMSO, 10% solutol HS‐15, and 87% double‐distilled water for dosing. Rats were purchased from Beijing Vital River Laboratory Animal Technology Co., Ltd. (Qualification No. SCXK(SH) 2021‐0011). Animals were subjected to 12 h alternating light and dark cycles, ad libitum access to drinking water and food, and fasting for 12 h prior to the initiation of treatments. For the oral dose at 10 mg kg^−1, blood samples were collected at 0.083, 0.25, 0.5, 1, 2, 4, 6, 8, and 24 h postadministration. For the intravenous dose (at 2 mg kg^−1), blood samples were collected at 0.083, 0.25, 0.5, 1, 2, 4, 6, 8, and 24 h postadministration. Twenty µL of blood were mixed with a 200 µL solution of methanol:acetonitrile (1:1), vortexed for 5 min, and centrifuged (4000 rpm, 4 °C, 10 min) to obtain plasma within 30 min of sampling. The supernatant was analyzed by liquid chromatography–tandem mass spectrometry. Chromatographic separation was performed using an ACQUITY UPLC HSS T3 column (2.1 × 50 mm, 1.8 µm). […] Gradient elution was carried out at a flow rate of 0.8 mL min^−1. […] Mass spectrometric detection was performed with an electrospray ionization source operating in positive ion mode. Quantification was achieved using multiple reaction monitoring with the following transitions: m/z 403.15.
# Pharmacokinetic parameters such as AUC, T 1/2, and C max were calculated with the WinNonlin software.
# [4] = test system: recombinant HSV‐2 GFP strain; settings: Human alphaherpesvirus 2, Vero, read-out: EC50 against recombinant HSV‐2 GFP strain
# [5] = test system: HSV‐2 strains G and Lovelace; experiment: Antiviral assay, HSV‐2 strains G and Lovelace in Vero cells (viral titer, TCID50); settings: 10 µM, 24 h post‐infection
# [6] = treatment after infection, days 0-3 p.i., LN‐7 75 mg kg−1, acyclovir 50 mg kg−1 or both
# Sequence of HSV‐1 pUL15C (P04295 471-735): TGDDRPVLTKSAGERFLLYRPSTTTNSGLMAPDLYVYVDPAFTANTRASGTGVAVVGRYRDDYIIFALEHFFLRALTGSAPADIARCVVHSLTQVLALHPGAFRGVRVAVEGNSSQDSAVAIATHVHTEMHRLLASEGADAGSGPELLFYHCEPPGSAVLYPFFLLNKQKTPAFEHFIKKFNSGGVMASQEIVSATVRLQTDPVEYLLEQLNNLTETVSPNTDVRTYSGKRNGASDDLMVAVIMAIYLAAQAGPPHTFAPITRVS
compound,measurement,setting,value
"Nc1nc2c(ncn2COCCO)c(=O)[nH]1 [Acyclovir (ACV), Acyclovir, reference compound]",toxic symptoms or mortality,BALB/c mice,did not show any toxic symptoms or mortality
same,clinical symptoms of the infection / morbidity,HSV‐1; prophylactic setting,Clinical symptoms of the infection were observed
same,clinical symptoms,HSV‐1; [6],clinical symptoms were alleviated
same,piloerection,HSV‐1; [6],piloerection was observed
same,survival,HSV‐1; [6],survived until the end of the experiment
same,CC50 at 24 h,[1]; Vero cells,> 100 µM
same,EC50,[2],> 20 µM
"O=C1c2c(O)c(=O)ccn2N([C@@H]2c3ccccc3SCc3c2ccc(F)c3F)[C@@H]2COCCN12 [Baloxavir acid, reference compound]",CC50 at 24 h,[1],> 100 µM
"COC(=O)OCOc1c2n(ccc1=O)N([C@@H]1c3ccccc3SCc3c1ccc(F)c3F)[C@@H]1COCCN1C2=O [Baloxavir marboxil, reference compound]",CC50 at 24 h,[1],> 100 µM
O=C1c2c(O)c(=O)ccn2N(Cc2ccc(C(F)(F)F)cc2)[C@@H]2COCCN12 [Compound 7],CC50 at 24 h,[1]; Vero cells,> 100 µM
O=C1c2c(O)c(=O)ccn2N(Cc2ccc(Cl)c(F)c2)[C@@H]2COCCN12 [Compound 10],CC50 at 24 h,[1]; Vero cells,> 100 µM
O=C1c2c(O)c(=O)ccn2N(Cc2ccc3ccc4cccc5ccc2c3c45)[C@@H]2COCCN12 [Compound 12],inhibition at 50 µM,HSV‐1 pUL15C,65.4%
same,IC50,HSV‐1 pUL15C,> 30 µM
"O=C1c2c(O)c(=O)ccn2N(Cc2ccc(-c3ccco3)cc2)[C@@H]2COCCN12 [Compound 16, (R)-12-(4-(furan-2-yl)benzyl)-7-hydroxy-3,4,12,12a-tetrahydro-1H-[1,4] oxazi no[3,4-c] pyrido[2,1-f] [1,2,4] triazine-6,8-dione]",CC50 at 24 h,[1]; Vero cells,> 100 µM
"O=C1c2c(O)c(=O)ccn2N(Cc2ccc(-c3ccccc3)cc2)[C@@H]2COCCN12 [Compound 17, (R)-12-([1,1'-biphenyl] -4-ylmethyl)-7-hydroxy-3,4,12,12a-tet rahydro-1H-[1,4] oxazino[3,4-c] pyrido[2,1-f] [1,2,4] triazine-6,8-dione]",AUC(0-inf),[3]; IV 2 mg/Kg,1230 ± 182 ng·h/mL
same,Cmax,[3]; IV 2 mg/Kg,782 ± 63.2 ng/mL
same,Tmax,[3]; IV 2 mg/Kg,0.0833 h
same,clearance,[3]; IV 2 mg/Kg,27.4 mL/min/kg
same,half-life,[3]; IV 2 mg/Kg,6.24 ± 1.24 h
same,Vd,"[3]; IV 2 mg/Kg, read-out: Vz",15.1 ± 4.05 L/kg
same,AUC(0-inf),[3]; PO 10 mg/Kg,2980 ± 763 ng·h/mL
same,Cmax,[3]; PO 10 mg/Kg,573 ± 152 ng/mL
same,Tmax,[3]; PO 10 mg/Kg,2 h
same,half-life,[3]; PO 10 mg/Kg,5.54 ± 0.676 h
same,toxic symptoms or mortality,BALB/c mice,did not show any toxic symptoms or mortality
same,"HSV‐1 titers in lung, brain, olfactory bulb and spleen tissues","HSV‐1; prophylactic setting, oral LN‐7 75 mg kg−1, days −1 to 3 p.i., day 8 p.i.",decreased around one to two orders of magnitude
same,clinical symptoms of the infection / morbidity,HSV‐1; prophylactic setting,morbidity was higher for the LN‐7‐treated animals
same,clinical symptoms,HSV‐1; [6],clinical symptoms were alleviated
same,piloerection,HSV‐1; [6],piloerection was observed
same,survival,HSV‐1; [6],survived until the end of the experiment
same,"viral titers in tissues (lungs, brain, olfactory bulb, kidneys, spleen)","HSV‐1; treatment after infection, days 0-3 p.i., LN‐7 75 mg kg−1, acyclovir 50 mg kg−1 or both, day 8 p.i.","significant reductions in the viral titers in all analyzed tissues of treated mice, except for kidney tissue"
same,CC50 at 24 h,[1]; Vero cells,38.8 µM
same,EC50,[2],3.2 ± 0.3 µM
same,EC50,[4],3.6 ± 1.8 µM
same,reduction in the viral titer,[5],reduction of two orders of magnitude
O=C1c2c(O)c(=O)ccn2N(Cc2ccc(-c3ccc4[nH]ccc4c3)cc2)[C@@H]2COCCN12 [Compound 19],inhibition at 50 µM,HSV‐1 pUL15C,51.5%
same,IC50,HSV‐1 pUL15C,> 30 µM
O=C1c2c(O)c(=O)ccn2N(Cc2ccc(-c3ccc(F)cc3)cc2)[C@@H]2COCCN12 [Compound 30],CC50 at 24 h,[1]; Vero cells,> 66.5 µM
O=C1c2c(O)c(=O)ccn2N(Cc2ccc(-c3ccc(Cl)cc3)cc2)[C@@H]2COCCN12 [Compound 31],inhibition at 50 µM,HSV‐1 pUL15C,48.1%
same,IC50,HSV‐1 pUL15C,> 30 µM
O=C1c2c(O)c(=O)ccn2N(Cc2ccc(-c3ccc([N+](=O)[O-])cc3)cc2)[C@@H]2COCCN12 [Compound 32],inhibition at 50 µM,HSV‐1 pUL15C,74.3%
same,IC50,HSV‐1 pUL15C,> 30 µM
COc1ccc(-c2ccc(CN3[C@@H]4COCCN4C(=O)c4c(O)c(=O)ccn43)cc2)cc1 [Compound 33],IC50,HSV‐1 pUL15C,19.4 ± 1.3 µM
O=C1c2c(O)c(=O)ccn2N(Cc2ccc(-c3ccc(OC(F)(F)F)cc3)cc2)[C@@H]2COCCN12 [Compound 34],CC50 at 24 h,[1]; Vero cells,> 52.8 µM
O=C(Nc1ccccc1)c1ccc(-c2ccc(CN3[C@@H]4COCCN4C(=O)c4c(O)c(=O)ccn43)cc2)cc1 [Compound 40],inhibition at 50 µM,HSV‐1 pUL15C,42.7%
same,IC50,HSV‐1 pUL15C,> 30 µM
"CC(C)c1ccc(O)c(=O)c(O)c1 [β‐thujaplicinol, reference compound]",CC50 at 24 h,[1]; Vero cells,> 100 µM
